The values that follow come from patent publication US8680146B2, “Organic compounds” (Novartis AG, priority 2008, dated 2014).

Bounds are passed on as bounds.

The series in a line: Solubility study of FTY720 salts in various solvents. Conditions: approx. values at 25° C. The format is physicochemical. The protocol: The solubilities of various salts were assessed and are given in the table below (approx. values at 25° C., g/100 ml %): […]

Turning to `CCCCCCCCc1ccc(CCC(N)(CO)CO)cc1` [Free Base, 2-amino-2-[2-(4-octylphenyl)ethyl]propane-1,3-diol], the “Solubility in 0.1N HCl” value was >2 g/100 ml %, the “Solubility in Acetone” value came out at 0.52 g/100 ml %, the “Solubility in Ethanol” value was 3.88 g/100 ml % and the “Solubility in Ethylacetate” value is 0.45 g/100 ml %. Moreover, the “Solubility in Isopropanol” value is listed as 2.03 g/100 ml %, the “Solubility in Octanol” value is reported as 1-2 g/100 ml %, the “Solubility in Water” value is listed as 0.018 g/100 ml % and the “Solubility in pH 6.88 phosphate buffer” value is recorded as <0.001 g/100 ml %.
Turning to `CCCCCCCCc1ccc(CCC(N)(CO)CO)cc1.Cl` [Hydrochloride, 2-amino-2-[2-(4-octylphenyl)ethyl]propane-1,3-diol hydrochloride salt], the “Solubility in 0.1N HCl” value is on record as >2 g/100 ml %, the “Solubility in Acetone” value came to 0.08 g/100 ml %, the “Solubility in Ethanol” value is >7.94 g/100 ml % and the “Solubility in Ethylacetate” value was determined as 0.03 g/100 ml %. Besides, the “Solubility in Isopropanol” value worked out at 4.51 g/100 ml %, the “Solubility in Octanol” value was 1-2 g/100 ml %, the “Solubility in Water” value is on record as >10 g/100 ml % and the “Solubility in pH 6.88 phosphate buffer” value is recorded as <0.001 g/100 ml %.
